# According to ChEMBL document CHEMBL5214952, “Unique iminotetrahydroberberine-corbelled metronidazoles as potential membrane active broad-spectrum antibacterial agents” (Bioorg Med Chem Lett, 2022):
# pIC50: −log10 of the molar value. Calls of active or inactive are those of the source. The rule behind the calls is not given here.
# Assays:
# Acinetobacter baumannii = assay: Antibacterial activity against Acinetobacter baumannii assessed as inhibition of bacterial growth by CLSI based continuous dilution method; assay type: functional
# Staphylococcus aureus [1] = assay: Antibacterial activity against methicillin-resistant Staphylococcus aureus assessed as inhibition of bacterial growth by CLSI based continuous dilution method; assay type: functional
# Escherichia coli [2] = assay: Antibacterial activity against Escherichia coli ATCC 25922 assessed as inhibition of bacterial growth by CLSI based continuous dilution method; assay type: functional
# Pseudomonas aeruginosa [3] = assay: Antibacterial activity against Pseudomonas aeruginosa ATCC 27853 assessed as inhibition of bacterial growth by CLSI based continuous dilution method; assay type: functional
# Staphylococcus aureus [4] = assay: Antibacterial activity against Staphylococcus aureus ATCC 25923 assessed as inhibition of bacterial growth by CLSI based continuous dilution method; assay type: functional
# Enterococcus faecalis = assay: Antibacterial activity against Enterococcus faecalis assessed as inhibition of bacterial growth by CLSI based continuous dilution method; assay type: functional
# Staphylococcus aureus [5] = assay: Antibacterial activity against Staphylococcus aureus ATCC 29213 assessed as inhibition of bacterial growth by CLSI based continuous dilution method; assay type: functional
# Staphylococcus aureus [6] = assay: Antibacterial activity against Staphylococcus aureus assessed as inhibition of bacterial growth by CLSI based continuous dilution method; assay type: functional
# Aspergillus fumigatus = assay: Antifungal activity against Aspergillus fumigatus assessed as inhibition of fungal growth by CLSI based continuous dilution method; assay type: functional, organism-based
# Klebsiella pneumoniae = assay: Antibacterial activity against Klebsiella pneumoniae assessed as inhibition of bacterial growth by CLSI based continuous dilution method; assay type: functional
# Pseudomonas aeruginosa [7] = assay: Antibacterial activity against Pseudomonas aeruginosa assessed as inhibition of bacterial growth by CLSI based continuous dilution method; assay type: functional
# Escherichia coli [8] = assay: Antibacterial activity against Escherichia coli assessed as inhibition of bacterial growth by CLSI based continuous dilution method; assay type: functional
# Pseudomonas aeruginosa [9] = assay: Induction of drug resistance in Pseudomonas aeruginosa assessed as reduction in susceptibility measured after 6 passages; assay type: functional
# Pseudomonas aeruginosa [10] = assay: Induction of drug resistance in Pseudomonas aeruginosa assessed as fold increase in MIC measured after 11 passages; assay type: functional
# Cell membrane [11] = assay: Disruption of membrane integrity in Pseudomonas aeruginosa assessed as increase in nucleic acid leakage by measuring fold reduction in optical density at 8 times MIC by absorption spectrometry analysis
# Cell membrane [12] = assay: Disruption of membrane integrity in Pseudomonas aeruginosa assessed as increase in protein leakage by measuring reduction in fluorescence intensity at 0.5 to 8 times MIC incubated for 6 hrs by bradford assay
# Pseudomonas aeruginosa [13] = assay: Potency index, ratio of Berberine MIC to test compound MIC for antibacterial activity against Pseudomonas aeruginosa assessed as inhibition of bacterial growth by CLSI based continuous dilution method; assay type: functional
# Pseudomonas aeruginosa [14] = assay: Potency index, ratio of norfloxacin MIC to test compound MIC for antibacterial activity against Pseudomonas aeruginosa assessed as inhibition of bacterial growth by CLSI based continuous dilution method; assay type: functional
# Pseudomonas aeruginosa [15] = assay: Potency index, ratio of Metronidazole MIC to test compound MIC for antibacterial activity against Pseudomonas aeruginosa assessed as inhibition of bacterial growth by CLSI based continuous dilution method; assay type: functional
# Pseudomonas aeruginosa [16] = assay: Antibiofilm activity against Pseudomonas aeruginosa assessed as reduction in biofilm viability at 8 times MIC by crystal violet staining based assay relative to control; assay type: functional
# [17] = Cytotoxicity against human HepG2 cells assessed as cell viability at 1 times MIC relative to control; assay type: toxicity, cell-based; settings: read-out: Activity
# Cell membrane [18] = assay: Induction of outer membrane permeabilization in Pseudomonas aeruginosa assessed as increase in NPN uptake by measuring increase in fluorescence intensity at 0.5 to 8 times MIC by NPN-dye based fluorescence analysis; settings: DDE = dose-dependent effect
# [19] = Cytotoxicity against human HepG2 cells assessed as reduction in cell viability; assay type: toxicity, cell-based
# Cell membrane [20] = assay: Disruption of membrane integrity in Pseudomonas aeruginosa assessed as reduction in intact bacterial cells by measuring reduction in fluorescence intensity at 0.5 to 8 times MIC by calcein-AM dye based assay
# Cell membrane [21] = assay: Induction of inner membrane permeabilization in Pseudomonas aeruginosa assessed as increase in PI uptake by measuring increase in fluorescence intensity at 0.5 to 8 times MIC by propidium iodide staining based fluorescence analysis; settings: DDE = dose-dependent effect
# Pseudomonas aeruginosa [22] = assay: Induction of […] membrane potential depolarization in Pseudomonas aeruginosa assessed as fold increase in fluorescence intensity at 8 times MIC by DiSC35 dye based fluorescence assay; assay type: functional
# Cell membrane [23] = assay: Induction of cell membrane permeabilization in Pseudomonas aeruginosa assessed as increase in number of cells with damaged membranes by measuring increase in red fluorescence at 1 times MIC measured for 10 mins by PI staining based fluorescence analysis
# Pseudomonas aeruginosa [24] = assay: Antibiofilm activity against Pseudomonas aeruginosa assessed as reduction in biofilm viability at 0.5 to 8 times MIC by crystal violet staining based assay; assay type: functional, organism-based; settings: DDE = dose-dependent effect
Compound,MIC (Acinetobacter baumannii),MIC (Staphylococcus aureus [1]),MIC (Escherichia coli [2]),MIC (Pseudomonas aeruginosa [3]),MIC (Staphylococcus aureus [4]),MIC (Enterococcus faecalis),MIC (Staphylococcus aureus [5]),MIC (Staphylococcus aureus [6]),Activity (Aspergillus fumigatus),MIC (Klebsiella pneumoniae),MIC (Pseudomonas aeruginosa [7]),MIC (Escherichia coli [8]),also measured
CCCO/N=C/c1cc(OC)c(OCC(O)Cn2c([N+](=O)[O-])cnc2C)c2c1CC1c3cc4c(cc3CCN1C2)OCO4 (centres undefined),863 µM,863 µM,215 µM,863 µM,215 µM,863 µM,863 µM,863 µM,Active,863 µM,863 µM,863 µM,
CO/N=C/c1cc(OC)c(OCC(O)Cn2c([N+](=O)[O-])cnc2C)c2c1CC1c3cc4c(cc3CCN1C2)OCO4 (centres undefined),905 µM,905 µM,905 µM,113 µM,56 µM,226 µM,905 µM,452 µM,Active,905 µM,905 µM,905 µM,
CCCCCO/N=C/c1cc(OC)c(OCC(O)Cn2c([N+](=O)[O-])cnc2C)c2c1CC1c3cc4c(cc3CCN1C2)OCO4 (centres undefined),206 µM,824 µM,206 µM,824 µM,824 µM,824 µM,824 µM,824 µM,Active,824 µM,824 µM,824 µM,
C=CCO/N=C/c1cc(OC)c(OCC(O)Cn2c([N+](=O)[O-])cnc2C)c2c1CC1c3cc4c(cc3CCN1C2)OCO4 (centres undefined),216 µM,54 µM,216 µM,54 µM,54 µM,216 µM,216 µM,108 µM,Active,54 µM,216 µM,433 µM,
COc1ccc2cc3[n+](cc2c1OC)CCc1cc2c(cc1-3)OCO2 [BERBERINE],190 µM,761 µM,380 µM,380 µM,380 µM,380 µM,190 µM,380 µM,,190 µM,1520 µM,380 µM,
Cc1ncc([N+](=O)[O-])n1CCO [METRONIDAZOLE],1500 µM,1500 µM,1500 µM,1500 µM,1500 µM,748 µM,1500 µM,1500 µM,,374 µM,1500 µM,1500 µM,
CCn1cc(C(=O)O)c(=O)c2cc(F)c(N3CCNCC3)cc21 [NORFLOXACIN],25 µM,25 µM,25 µM,12 µM,100 µM,6 µM,3 µM,25 µM,,25 µM,50 µM,50 µM,Activity (Pseudomonas aeruginosa [9]): Active; fold change (FC) (Pseudomonas aeruginosa [10]): 8
CCCCO/N=C/c1cc(OC)c(OCC(O)Cn2c([N+](=O)[O-])cnc2C)c2c1CC1c3cc4c(cc3CCN1C2)OCO4 (centres undefined),843 µM,843 µM,843 µM,843 µM,843 µM,843 µM,843 µM,843 µM,Active,843 µM,843 µM,843 µM,
CCO/N=C/c1cc(OC)c(OCC(O)Cn2c([N+](=O)[O-])cnc2C)c2c1CC1c3cc4c(cc3CCN1C2)OCO4 (centres undefined),883 µM,883 µM,883 µM,883 µM,883 µM,883 µM,883 µM,883 µM,Active,883 µM,883 µM,883 µM,
COc1cc(/C=N/OCc2ccccc2)c2c(c1OCC(O)Cn1c([N+](=O)[O-])cnc1C)CN1CCc3cc4c(cc3C1C2)OCO4 (centres undefined),24 µM,49 µM,99 µM,199 µM,24 µM,49 µM,49 µM,49 µM,Active,24 µM,24 µM,24 µM,fold change (FC) (Cell membrane [11]): 0.1; Activity (Cell membrane [12]): Active; Ratio (Pseudomonas aeruginosa [13]): 63; Ratio (Pseudomonas aeruginosa [14]): 2; Ratio (Pseudomonas aeruginosa [15]): 62; Activity (Pseudomonas aeruginosa [16]): 46.4%; viability at 1 times MIC [17]: > 80%; Activity (Cell membrane [18]): Dde; pIC50 [19]: < 4.30; Activity (Cell membrane [20]): Active; Activity (Cell membrane [21]): Dde; fold change (FC) (Pseudomonas aeruginosa [22]): 4; Activity (Cell membrane [23]): Active; Activity (Pseudomonas aeruginosa [24]): Dde
COc1cc(/C=N/O)c2c(c1OCC(O)Cn1c([N+](=O)[O-])cnc1C)CN1CCc3cc4c(cc3C1C2)OCO4 (centres undefined),58 µM,116 µM,29 µM,58 µM,58 µM,29 µM,232 µM,58 µM,Active,464 µM,116 µM,15 µM,
CCCCCCO/N=C/c1cc(OC)c(OCC(O)Cn2c([N+](=O)[O-])cnc2C)c2c1CC1c3cc4c(cc3CCN1C2)OCO4 (centres undefined),805 µM,805 µM,805 µM,805 µM,50 µM,805 µM,805 µM,805 µM,Active,805 µM,805 µM,805 µM,
COc1cc(/C=N/OC(C)(C)C)c2c(c1OCC(O)Cn1c([N+](=O)[O-])cnc1C)CN1CCc3cc4c(cc3C1C2)OCO4 (centres undefined),211 µM,52 µM,211 µM,52 µM,52 µM,211 µM,211 µM,105 µM,Active,52 µM,211 µM,422 µM,
